Data as given in ChEMBL document CHEMBL3108777, “Isochromans and α-pyrones from Penicillium corylophilum” (J Nat Prod, 2014).
Converted amounts (≈) assume the structure as drawn. The source made the active and inactive calls. The rule behind the calls is not given here.

Biological target: DNA topoisomerase 2-alpha (Homo sapiens, UniProt P11388)
Experiment: Inhibition of topoisomerase-2 (unknown origin)

Sequence of DNA topoisomerase 2-alpha (P11388 whole entry): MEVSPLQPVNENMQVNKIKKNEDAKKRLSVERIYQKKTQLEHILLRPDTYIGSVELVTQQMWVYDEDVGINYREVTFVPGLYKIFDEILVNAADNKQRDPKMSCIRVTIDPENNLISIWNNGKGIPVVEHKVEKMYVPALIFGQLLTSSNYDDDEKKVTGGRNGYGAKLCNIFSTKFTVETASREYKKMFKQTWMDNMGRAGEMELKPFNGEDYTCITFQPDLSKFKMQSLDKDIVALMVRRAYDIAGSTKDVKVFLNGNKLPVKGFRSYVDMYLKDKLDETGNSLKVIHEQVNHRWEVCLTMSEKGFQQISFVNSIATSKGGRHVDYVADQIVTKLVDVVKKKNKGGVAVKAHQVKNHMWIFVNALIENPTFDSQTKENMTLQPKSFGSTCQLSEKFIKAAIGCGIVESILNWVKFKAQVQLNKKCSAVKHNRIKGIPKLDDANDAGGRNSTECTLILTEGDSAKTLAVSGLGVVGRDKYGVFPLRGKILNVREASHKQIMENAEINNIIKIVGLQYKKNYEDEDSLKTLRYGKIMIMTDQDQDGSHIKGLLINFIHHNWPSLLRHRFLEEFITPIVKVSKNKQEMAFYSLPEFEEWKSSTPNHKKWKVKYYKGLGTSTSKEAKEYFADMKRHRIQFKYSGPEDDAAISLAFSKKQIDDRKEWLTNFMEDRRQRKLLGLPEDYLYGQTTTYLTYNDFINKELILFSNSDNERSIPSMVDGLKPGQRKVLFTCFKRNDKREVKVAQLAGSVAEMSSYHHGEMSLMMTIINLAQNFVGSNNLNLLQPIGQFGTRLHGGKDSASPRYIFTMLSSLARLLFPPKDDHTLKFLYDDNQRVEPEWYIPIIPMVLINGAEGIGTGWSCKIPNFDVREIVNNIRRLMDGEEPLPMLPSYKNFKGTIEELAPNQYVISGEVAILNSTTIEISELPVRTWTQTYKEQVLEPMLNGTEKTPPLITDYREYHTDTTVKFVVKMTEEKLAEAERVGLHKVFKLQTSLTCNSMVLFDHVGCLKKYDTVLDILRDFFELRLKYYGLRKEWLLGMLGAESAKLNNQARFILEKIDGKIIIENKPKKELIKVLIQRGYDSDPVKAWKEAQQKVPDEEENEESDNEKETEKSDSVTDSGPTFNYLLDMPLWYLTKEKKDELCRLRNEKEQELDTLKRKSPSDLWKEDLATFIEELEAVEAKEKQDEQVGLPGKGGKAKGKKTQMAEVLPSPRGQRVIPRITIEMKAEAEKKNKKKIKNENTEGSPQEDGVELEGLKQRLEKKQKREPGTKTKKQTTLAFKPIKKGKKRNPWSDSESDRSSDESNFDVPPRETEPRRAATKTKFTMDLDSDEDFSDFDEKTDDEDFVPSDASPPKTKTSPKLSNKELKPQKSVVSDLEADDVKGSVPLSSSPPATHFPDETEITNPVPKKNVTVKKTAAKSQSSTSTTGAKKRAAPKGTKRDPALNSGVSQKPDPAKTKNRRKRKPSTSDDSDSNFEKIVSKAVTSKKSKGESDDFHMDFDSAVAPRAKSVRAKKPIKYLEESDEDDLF

Q: With `CCCCCCC[C@H]1Cc2cc(O)c(C(=O)O)c(O)c2[C@@H](O)O1` as the compound, how does the IC50 read?
A: 3.08 µM

Tested on: Pseudomonas putida
Experiment: Antibacterial activity against Pseudomonas putida ATCC 12633 at <50 ug/ml measured every 1 hr
Assay type: functional, organism-based

Q: For `O=C(O)c1c(O)cc2c(c1O)CO[C@@H](CCCCCCCO)C2`, which Activity is on record?
A: inactive

Q: For `Cc1c(O)cc(C[C@@H](O)CCCCCCCO)oc1=O`, which Activity is on record?
A: inactive

Q: With `O=C(O)c1c(O)cc2c(c1O)[C@@H](O)O[C@@H](CCCCCCCO)C2` as the compound, how does the Activity read?
A: inactive

Q: For `Cc1c(O)cc(C[C@@H](O)C[C@H](O)CCCCCCCO)oc1=O`, which Activity is on record?
A: inactive

Q: For `C[C@@H](O)CCCCC[C@H]1Cc2cc(O)c(C(=O)O)c(O)c2[C@@H](O)O1`, which Activity is on record?
A: inactive

Q: Which Activity does the source give for `C[C@@H](O)CCCCC[C@H]1Cc2cc(O)c(C(=O)O)c(O)c2CO1` here?
A: inactive

Q: Which Activity does the source give for `CCCCCCC[C@@H](O)C[C@H](O)Cc1cc(O)c(C)c(=O)o1` here?
A: inactive

Tested on: Bacillus subtilis
Experiment: Antibacterial activity against Bacillus subtilis ATCC 23857 at <50 ug/ml measured every 1 hr
Assay type: functional, organism-based

Q: For `O=C(O)c1c(O)cc2c(c1O)CO[C@@H](CCCCCCCO)C2`, which Activity is on record?
A: inactive

Q: With `Cc1c(O)cc(C[C@@H](O)CCCCCCCO)oc1=O` as the compound, how does the Activity read?
A: inactive

Q: With `O=C(O)c1c(O)cc2c(c1O)[C@@H](O)O[C@@H](CCCCCCCO)C2` as the compound, how does the Activity read?
A: inactive

Q: With `Cc1c(O)cc(C[C@@H](O)C[C@H](O)CCCCCCCO)oc1=O` as the compound, how does the Activity read?
A: inactive

Q: For `C[C@@H](O)CCCCC[C@H]1Cc2cc(O)c(C(=O)O)c(O)c2[C@@H](O)O1`, which Activity is on record?
A: inactive

Q: With `C[C@@H](O)CCCCC[C@H]1Cc2cc(O)c(C(=O)O)c(O)c2CO1` as the compound, how does the Activity read?
A: inactive

Q: Which Activity does the source give for `CCCCCCC[C@@H](O)C[C@H](O)Cc1cc(O)c(C)c(=O)o1` here?
A: inactive

Tested on: Saccharomyces cerevisiae
Experiment: Antifungal activity against Saccharomyces cerevisiae assessed as growth inhibition measured every 4 hrs
Assay type: functional

Q: With `O=C(O)c1c(O)cc2c(c1O)CO[C@@H](CCCCCCCO)C2` as the compound, how does the MIC read?
A: 100 µg/mL (≈ 308 µM)

Q: With `O=C(O)c1c(O)cc2c(c1O)[C@@H](O)O[C@@H](CCCCCCCO)C2` as the compound, how does the MIC read?
A: 100 µg/mL (≈ 294 µM)

Q: For `C[C@@H](O)CCCCC[C@H]1Cc2cc(O)c(C(=O)O)c(O)c2[C@@H](O)O1`, which MIC is on record?
A: 100 µg/mL (≈ 294 µM)

Q: Which MIC does the source give for `C[C@@H](O)CCCCC[C@H]1Cc2cc(O)c(C(=O)O)c(O)c2CO1` here?
A: 100 µg/mL (≈ 308 µM)

Q: For NYSTATIN, which MIC is on record?
A: < 5 µg/mL

Biological target: not listed separately
Experiment: Inhibition of DNA gyrase (unknown origin)-mediated DNA relaxation

Q: With `CCCCCCC[C@H]1Cc2cc(O)c(C(=O)O)c(O)c2[C@@H](O)O1` as the compound, how does the IC50 read?
A: 9 µg/mL (≈ 27.7 µM)

Biological target: not listed separately
Experiment: Inhibition of DNA gyrase (unknown origin)-mediated DNA supercoiling

Q: For `CCCCCCC[C@H]1Cc2cc(O)c(C(=O)O)c(O)c2[C@@H](O)O1`, which IC50 is on record?
A: 6 µg/mL (≈ 18.5 µM)
